Measurements reported in paper PMC11494886, “Discovery and design of molecular glue enhancers of CDK12–DDB1 interactions for targeted degradation of cyclin K” (RSC Chemical Biology, 2024).

Legend:
Cdk12/CycK and DDB1ΔB [1] = target: T1, Cdk12/CycK and DDB1ΔB (Homo sapiens, UniProt Q16531+Q9NYV4, DEL396-705); assay: Thermal stability (nanoDSF) of mixture of DDB1ΔB and Cdk12/CycK; format: binding; conditions: Cdk12/CycK and DDB1ΔB 5 μM each, 3-fold molar excess of compound
T1 construct: the Cdk12 (714–1063)/CycK (1–267) complex and the DDB1ΔB protein; made in house; host or cells: Sf9 insect cells (MultiBacTurbo)
T1 sequence (Q9NYV4 714-1063, stated change not applied): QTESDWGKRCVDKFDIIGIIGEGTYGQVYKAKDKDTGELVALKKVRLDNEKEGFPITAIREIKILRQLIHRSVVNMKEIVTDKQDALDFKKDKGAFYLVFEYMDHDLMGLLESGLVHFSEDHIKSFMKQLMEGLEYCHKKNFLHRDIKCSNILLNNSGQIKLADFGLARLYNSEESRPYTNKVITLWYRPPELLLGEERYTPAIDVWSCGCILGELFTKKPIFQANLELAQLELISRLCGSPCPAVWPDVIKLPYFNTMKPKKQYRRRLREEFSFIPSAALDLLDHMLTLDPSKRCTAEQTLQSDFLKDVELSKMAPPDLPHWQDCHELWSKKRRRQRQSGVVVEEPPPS
T1 sequence (O75909 1-267 partner limits assumed): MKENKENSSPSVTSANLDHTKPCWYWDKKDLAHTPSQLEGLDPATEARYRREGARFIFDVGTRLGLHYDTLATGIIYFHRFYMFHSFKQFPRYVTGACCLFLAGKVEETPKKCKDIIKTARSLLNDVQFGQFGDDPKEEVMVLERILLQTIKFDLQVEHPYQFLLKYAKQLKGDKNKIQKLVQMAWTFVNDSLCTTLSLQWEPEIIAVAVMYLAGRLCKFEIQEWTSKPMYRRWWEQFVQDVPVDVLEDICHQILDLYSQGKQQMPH
T1 sequence (Q16531 with tags, fused parts or gaps DEL396-705): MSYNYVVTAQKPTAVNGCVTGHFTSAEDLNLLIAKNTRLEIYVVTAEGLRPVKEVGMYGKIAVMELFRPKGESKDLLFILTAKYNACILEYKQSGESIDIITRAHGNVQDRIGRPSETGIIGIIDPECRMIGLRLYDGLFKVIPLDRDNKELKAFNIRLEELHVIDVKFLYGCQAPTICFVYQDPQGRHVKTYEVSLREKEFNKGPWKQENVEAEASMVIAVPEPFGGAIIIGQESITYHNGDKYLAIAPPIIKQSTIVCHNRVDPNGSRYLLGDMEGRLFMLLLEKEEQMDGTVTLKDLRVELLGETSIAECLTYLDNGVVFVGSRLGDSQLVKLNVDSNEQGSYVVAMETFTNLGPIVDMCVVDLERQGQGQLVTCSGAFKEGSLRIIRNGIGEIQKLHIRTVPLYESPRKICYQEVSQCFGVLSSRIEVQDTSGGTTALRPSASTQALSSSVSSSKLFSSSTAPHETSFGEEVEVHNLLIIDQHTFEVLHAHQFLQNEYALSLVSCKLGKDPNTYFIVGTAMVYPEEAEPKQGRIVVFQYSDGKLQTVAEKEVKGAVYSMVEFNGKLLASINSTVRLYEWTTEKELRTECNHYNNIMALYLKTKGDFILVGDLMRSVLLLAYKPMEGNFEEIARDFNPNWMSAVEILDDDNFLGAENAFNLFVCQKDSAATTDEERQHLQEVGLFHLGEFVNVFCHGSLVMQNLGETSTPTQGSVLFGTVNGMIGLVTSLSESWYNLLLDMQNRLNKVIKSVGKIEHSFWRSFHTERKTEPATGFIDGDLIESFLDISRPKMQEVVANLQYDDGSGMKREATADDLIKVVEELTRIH
Text: Synthetic genes, codon optimized for expression in Sf9 insect cells, comprising the kinase domain of human Cdk12 (residues 714–1063, UniProt accession number Q9NYV4) and cyclin box domains of human cyclin K (residues 1–267, UniProt accession number O75909) were purchased from GeneArt. The coding sequence of Cdk12 was integrated into the pACEBac1 acceptor vector, while CycK was introduced into pIDK donor vector. Both target vectors underwent modification, wherein a GST-affinity tag followed by a tobacco etch virus (TEV) protease cleavage site was introduced upstream of the protein coding sequence. A pIDC donor vector was employed to insert full-length CDK-activating kinase CAK1 (UniProt accession number P43568) from S. cerevisiae devoid of any affinity tag. […]
The human wild-type BPB domain deletion version (ΔBPB: amino acids 396–705 deleted) of DNA damage-binding protein 1 (DDB1) (residues 1–1140 Δ396–705, UniProt accession number Q16531) was PCR-amplified from AddGene plasmid #124213 and inserted into a pACEBac1 vector, which had been modified with a N-terminal His6 affinity tag. […] After loading the supernatant, the column was washed with 10 column volumes (CV) lysis buffer to achieve baseline levels of absorbance at 280 nm wavelength, followed by 3 CV of wash buffer (50 mM Tris pH 8, 200 mM NaCl, 1 mM TCEP, 50 mM Imidazole) and another round of lysis buffer (5 CV). […]

Cdk12/CycK and DDB1ΔB [2] = target: T1, Cdk12/CycK and DDB1ΔB; assay: GST pulldown assay, recruitment of DDB1ΔB to Cdk12/CycK; format: binding; conditions: GST-Cdk12/GST-CycK bait, 5 μM compound, vs DMSO
Experimental: The pulldown assay was utilized to identify drug-triggered protein–protein interactions involving the Cdk12 (714–1063)/CycK (1–267) complex and the DDB1ΔB protein. In this assay, purified GST-tagged Cdk12 construct complexed with GST-CycK was combined with equimolar amounts of His6-tagged DDB1ΔB (5 μM) in the presence of 5 μM of the respective small molecular compound in pulldown assay buffer (50 mM Hepes pH 7.4, 200 mM NaCl, 0.25 mM TCEP, 0.05% (v/v) Tween20), ensuring a 2% total DMSO concentration. Experimental controls included samples supplemented with 2% DMSO instead of compound as well as samples devoid of the GST-tagged Cdk12/CycK complex. Each sample was individually added to approximately 50 μL of pre-equilibrated glutathione agarose beads (Thermo Fisher Scientific). The bead suspensions were then subjected to a 2 h incubation period at room temperature with gentle agitation. After incubation, the beads were pelleted by centrifugation at 700 × g for 4 min, the supernatant was discarded, and the beads were washed three-times with 100 μL of pulldown assay buffer. Following the washing step, bound proteins were eluted from the beads with 50 μL of pulldown assay buffer supplemented with 10 mM GSH for 1 h at room temperature under rotation. Subsequently, the beads were again pelleted by centrifugation at 700 × g for 4 min and the resulting supernatants containing eluted protein fractions were mixed with 6 × SDS sample buffer at a 1 : 1 (v/v) ratio. The eluted protein samples were separated by SDS-PAGE and subjected to Coomassie brilliant blue staining for visualization and analysis.

| SMILES | ΔTm (Cdk12/CycK and DDB1ΔB [1]) | recruitment of DDB1ΔB in pulldown (Cdk12/CycK and DDB1ΔB [2]) |
| --- | --- | --- |
| Cn1cc(-n2cnc3c(NCc4nc5cc(Cl)c(Cl)cc5[nH]4)nc(N4CCOCC4)nc32)cn1 [SR-4835] | +5.05 °C | enrichment of DDB1ΔB fractions |
| CN(C)C/C=C/C(=O)Nc1ccc(C(=O)N2CCC[C@@H](Nc3ncc(Cl)c(-c4c[nH]c5ccccc45)n3)C2)cc1 [THZ531, reference compound] | +2 °C | incapable of recruiting the DDB1ΔB protein |
